Experiments:
gpt reporter gene = type: in vivo, RaDR^R/R;gpt^g/g;Mgmt^−/− mice; settings: liver, NDMA-treated Mgmt−/− vs NDMA-treated WT
Protocol: (§1) Most experiments utilized C57BL/6J gptΔ transgenic mice ([49],[50]), a gift from T. Nohmi. Some experiments used RaDR^R/R;gpt^g/g;Mgmt^−/− mice, which were created by crossing RaDR^R/R;gpt^g/gmice ([37]) with Mgmt^−/− mice ([51]). NDMA was synthesized and characterized as previously described ([52]) (Fig. S1). […] The first dose (3.5 mg/kg in 10 μl) was administered at 8 days of age, and the second dose (7 mg/kg in 20 μl) was administered at 15 days of age. Vehicle treated mice were administered equivalent volumes of saline. Mice were euthanized at ten weeks post-injection by CO2 inhalation. Both male and female mice were used in all experimental groups (n = 5) in all mouse experiments.
The gptΔ assay is the technology traditionally used with the gptΔ mouse to probe for small mutations in the 459 bp gpt transgene, of which approximately 160 copies exist in the mouse diploid genome ([50]). […]
The λ-EG10 phage was packaged in vitro from genomic DNA using a Transpack packaging extract (Agilent Technologies) and then transfected into E. coli YG6020 expressing Cre-recombinase, generating a 6.4 kb plasmid carrying the gpt and chloramphenicol acetyltransferase genes. […] The mutant frequency of each group was calculated (ratio of total 6-TG-resistant colonies to the average of chloramphenicol resistant colonies). The samples were processed and analyzed in a blinded fashion. […]

mouse genome = assay: Duplex sequencing, high-resolution mutational spectra and pLOGO of liver of NDMA-treated Mgmt−/− mice; type: in vivo
Protocol: as §1
To determine the identity of mutations and the sequence contexts in which they occur, we utilized a form of error-corrected sequencing called duplex sequencing (DS). Previously, we described how DS can be used directly on genomic samples derived from the gptΔ mouse to yield high-resolution mutational spectra in an unbiased (unselected) manner ([49]). Unlike the traditional gptΔ assay, DS evaluates the mutations throughout the entire 6382 bp transgenic region (which contains the gpt gene), without the need for a phenotypic selection. In the present work, 6.4 kb gpt-containing plasmids from gptΔ mouse livers and cell culture were isolated using a Miniprep Kit (Qiagen) following instructions of the manufacturer. Approximately 6 μg of plasmid DNA was diluted in 1× TE buffer-low EDTA, pH 8 (Thermo Scientific), transferred to a microTUBE AFA Fiber Pre-Slit Snap-Cap (Covaris) and sonicated using a Covaris E220 Focused-ultrasonicator. The following program was used to obtain 300–350 bp fragments: peak incident power = 140 W, duty factor = 10%, cycles per burst = 200, treatment time = 80 s, temperature = 4–7°C. DS libraries for gptΔ C57BL/6J mice and MEFs were prepared using the NEBNext Ultra II DNA Library Prep (E7103, NEB) or as described in Chawanthayatham et al. ([49]) and sequenced on a NextSeq500 or NovaSeq 6000 Illumina platform by using a 150 bp paired-end protocol (MIT BioMicro Center). DS libraries for the gptΔ mouse lungs and Mgmt^−/− mice were prepared using an input of 1 μg or 500 ng genomic DNA, respectively, using a TwinStrand Biosciences, Inc. Mouse Mutagenesis Kit according to the manufacturer's protocol. This kit uses probes that hybridize to 20 genomic regions, each 2.4 kb long. The genomic coordinates are provided in Supplementary Table S1. These probes were purposely selected to map in intronic and intergenic regions, to avoid selection bias. The libraries were sequenced on an Illumina NovaSeq 6000 DNA sequencer on an S4 flow cell using a 150 bp paired-end protocol (MIT BioMicro Center).
For each sample, the two fastq files generated by the Illumina sequencer were converted into an unaligned bam file, using Picard Tools. The resulting bam file was processed using UnifiedConsensusMaker.py (version 3.0) as available from the Kennedy Lab at University of Washington (https://github.com/Kennedy-Lab-UW/Duplex-Sequencing). Briefly, this program queries the molecular tags on each read and assembles them into families (strands with the same tag). These are subsequently collapsed into single-strand consensus sequences (SSCS). Then, the software identifies the SSCS corresponding to the complementary strand; these are grouped together as a double-strand consensus sequence (DCS). Unpaired SSCSs were flagged and ignored for the rest of the analysis. Sequence information was accepted only when the information from the two complementary DNA strands was in perfect agreement. The DCSs (as fastq files) were subsequently aligned to the target region (6382 nt in the λ-EG10 genome) using Burrows-Wheeler aligner. Unmapped reads were filtered out. Finally, the properly aligned DCS reads were trimmed (bases 1–8 and 120–137) and collapsed into a pileup file using SamTools. […]

C57BL/6J mice = system: C57BL/6J mice; set-up: method as in PMID 9500198; settings: cited from earlier work
[1] = C57BL/6J male mice, neonatal model

CN(C)N=O [NDMA, N-nitrosodimethylamine]
enhanced mutant frequency in Mgmt−/− vs wild-type mice, females (gpt reporter gene; females): 3 fold
enhanced mutant frequency in Mgmt−/− vs wild-type mice, males (gpt reporter gene; males): 4 fold
pLOGO Frequency (%) (mouse genome; A at 1, liver, Mgmt−/− mice): 31.4%
pLOGO Value (log-odds binomial probability) (mouse genome; A at 1, liver, Mgmt−/− mice): 47.10
pLOGO Frequency (%) (mouse genome; A at 2, liver, Mgmt−/− mice): 31.0%
pLOGO Value (log-odds binomial probability) (mouse genome; A at 2, liver, Mgmt−/− mice): 26.02
pLOGO Frequency (%) (mouse genome; A at 3, liver, Mgmt−/− mice): 29.4%
pLOGO Value (log-odds binomial probability) (mouse genome; A at 3, liver, Mgmt−/− mice): 12.99
pLOGO Frequency (%) (mouse genome; A at 5, liver, Mgmt−/− mice): 28.3%
pLOGO Value (log-odds binomial probability) (mouse genome; A at 5, liver, Mgmt−/− mice): 3.94
pLOGO Frequency (%) (mouse genome; A at -1, liver, Mgmt−/− mice): 42.5%
pLOGO Value (log-odds binomial probability) (mouse genome; A at -1, liver, Mgmt−/− mice): 256.46
pLOGO Frequency (%) (mouse genome; A at -2, liver, Mgmt−/− mice): 32.8%
pLOGO Value (log-odds binomial probability) (mouse genome; A at -2, liver, Mgmt−/− mice): 29.44
pLOGO Frequency (%) (mouse genome; A at -3, liver, Mgmt−/− mice): 29.2%
pLOGO Value (log-odds binomial probability) (mouse genome; A at -3, liver, Mgmt−/− mice): 4.17
pLOGO Frequency (%) (mouse genome; C at 2, liver, Mgmt−/− mice): 24.5%
pLOGO Value (log-odds binomial probability) (mouse genome; C at 2, liver, Mgmt−/− mice): 22.44
pLOGO Frequency (%) (mouse genome; G at 4, liver, Mgmt−/− mice): 23.1%
pLOGO Value (log-odds binomial probability) (mouse genome; G at 4, liver, Mgmt−/− mice): 13.22
pLOGO Frequency (%) (mouse genome; G at 5, liver, Mgmt−/− mice): 22.8%
pLOGO Value (log-odds binomial probability) (mouse genome; G at 5, liver, Mgmt−/− mice): 3.76
pLOGO Frequency (%) (mouse genome; G at 6, liver, Mgmt−/− mice): 24.8%
pLOGO Value (log-odds binomial probability) (mouse genome; G at 6, liver, Mgmt−/− mice): 20.10
pLOGO Frequency (%) (mouse genome; G at 7, liver, Mgmt−/− mice): 24.2%
pLOGO Value (log-odds binomial probability) (mouse genome; G at 7, liver, Mgmt−/− mice): 4.88
pLOGO Frequency (%) (mouse genome; G at -1, liver, Mgmt−/− mice): 41.6%
pLOGO Value (log-odds binomial probability) (mouse genome; G at -1, liver, Mgmt−/− mice): 324
pLOGO Frequency (%) (mouse genome; G at -2, liver, Mgmt−/− mice): 24.3%
pLOGO Value (log-odds binomial probability) (mouse genome; G at -2, liver, Mgmt−/− mice): 23.51
pLOGO Frequency (%) (mouse genome; G at -3, liver, Mgmt−/− mice): 22.9%
pLOGO Value (log-odds binomial probability) (mouse genome; G at -3, liver, Mgmt−/− mice): 4.27
pLOGO Frequency (%) (mouse genome; G at -4, liver, Mgmt−/− mice): 22.6%
pLOGO Value (log-odds binomial probability) (mouse genome; G at -4, liver, Mgmt−/− mice): 5.86
pLOGO Frequency (%) (mouse genome; G at -5, liver, Mgmt−/− mice): 22.8%
pLOGO Value (log-odds binomial probability) (mouse genome; G at -5, liver, Mgmt−/− mice): 4.67
pLOGO Frequency (%) (mouse genome; G at -6, liver, Mgmt−/− mice): 23.9%
pLOGO Value (log-odds binomial probability) (mouse genome; G at -6, liver, Mgmt−/− mice): 4.72
AT→GC mutations, proportion of mutations (mouse genome; Mgmt−/− mice): 1.7%
pLOGO Frequency (%) (mouse genome; T at -2, liver, Mgmt−/− mice): 24.7%
pLOGO Value (log-odds binomial probability) (mouse genome; T at -2, liver, Mgmt−/− mice): 9.33
sequence context of GC→AT mutations (mouse genome; liver of Mgmt−/− mice): 5’-PuGN-3’
dominant single-base substitution (mouse genome; liver of Mgmt−/− mice, 10 weeks post NDMA): GC→AT mutations
cosine similarity of mutational patterns in Mgmt−/− and WT mice (mouse genome; liver, baseline-corrected, normalized spectra): 0.98
incidence of hepatic tumors (C57BL/6J mice; [1]): ~80%
incidence of lung tumors (C57BL/6J mice; [1]): 7%
maximum tolerated dose (C57BL/6J mice; total dose, i.p., neonatal mice): 10.5 mg/kg

From article PMC10041537, “Molecular origins of mutational spectra produced by the environmental carcinogen N-nitrosodimethylamine and SN1 chemotherapeutic agents” (NAR Cancer, 2023)
